The melting point is the temperature of the solid-liquid transition.

Data set [1] addresses T1, hT1R2/hT1R3 sweet receptor (Homo sapiens, UniProt Q7RTX0+Q8TE23).
T1 construct: expressed in transfected cells; host or cells: HEK293 derivative stably expressing Gα15, clone S-9
T1 sequence (Q8TE23 20-839): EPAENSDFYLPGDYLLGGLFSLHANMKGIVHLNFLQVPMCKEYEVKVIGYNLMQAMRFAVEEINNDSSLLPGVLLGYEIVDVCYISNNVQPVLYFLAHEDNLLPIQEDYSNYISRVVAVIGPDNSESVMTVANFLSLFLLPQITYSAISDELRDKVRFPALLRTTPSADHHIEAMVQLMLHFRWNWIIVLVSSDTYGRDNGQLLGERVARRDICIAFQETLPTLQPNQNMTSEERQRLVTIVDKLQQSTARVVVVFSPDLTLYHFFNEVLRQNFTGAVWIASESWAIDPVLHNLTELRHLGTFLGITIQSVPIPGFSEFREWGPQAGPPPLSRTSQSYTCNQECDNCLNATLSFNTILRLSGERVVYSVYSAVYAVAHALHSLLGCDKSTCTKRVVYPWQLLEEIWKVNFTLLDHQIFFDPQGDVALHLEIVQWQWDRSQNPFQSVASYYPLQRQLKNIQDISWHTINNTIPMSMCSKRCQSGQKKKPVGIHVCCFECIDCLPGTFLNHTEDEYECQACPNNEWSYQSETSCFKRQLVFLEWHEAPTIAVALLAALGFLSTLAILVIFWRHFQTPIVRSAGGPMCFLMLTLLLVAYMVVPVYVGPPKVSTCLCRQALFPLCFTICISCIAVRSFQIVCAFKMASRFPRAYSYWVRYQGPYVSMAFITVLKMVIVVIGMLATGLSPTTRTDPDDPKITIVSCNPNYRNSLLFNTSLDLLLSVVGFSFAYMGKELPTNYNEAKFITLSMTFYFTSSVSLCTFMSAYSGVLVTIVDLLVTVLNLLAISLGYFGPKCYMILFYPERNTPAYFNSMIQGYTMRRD
T1 sequence (Q7RTX0 21-852): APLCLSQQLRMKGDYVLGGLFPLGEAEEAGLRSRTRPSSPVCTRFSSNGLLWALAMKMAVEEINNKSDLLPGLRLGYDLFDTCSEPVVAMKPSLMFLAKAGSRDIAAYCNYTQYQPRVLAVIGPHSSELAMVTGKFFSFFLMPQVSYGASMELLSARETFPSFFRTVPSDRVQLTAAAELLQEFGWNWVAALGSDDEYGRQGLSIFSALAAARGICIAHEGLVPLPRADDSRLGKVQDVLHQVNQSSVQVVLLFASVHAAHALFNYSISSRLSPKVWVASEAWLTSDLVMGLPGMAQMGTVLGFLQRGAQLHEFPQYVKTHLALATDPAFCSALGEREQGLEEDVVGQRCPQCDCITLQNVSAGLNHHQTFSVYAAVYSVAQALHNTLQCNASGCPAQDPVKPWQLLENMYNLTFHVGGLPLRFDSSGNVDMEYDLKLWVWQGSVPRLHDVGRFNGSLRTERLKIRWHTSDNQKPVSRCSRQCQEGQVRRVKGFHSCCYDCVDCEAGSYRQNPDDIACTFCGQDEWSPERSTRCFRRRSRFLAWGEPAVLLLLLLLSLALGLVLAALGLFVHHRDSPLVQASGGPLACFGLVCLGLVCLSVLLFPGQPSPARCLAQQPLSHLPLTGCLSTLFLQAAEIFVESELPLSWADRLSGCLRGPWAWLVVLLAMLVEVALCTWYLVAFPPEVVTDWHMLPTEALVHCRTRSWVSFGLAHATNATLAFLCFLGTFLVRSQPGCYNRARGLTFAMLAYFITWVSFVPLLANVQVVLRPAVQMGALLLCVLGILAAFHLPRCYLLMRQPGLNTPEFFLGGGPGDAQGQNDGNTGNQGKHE
Nature of the data set: In vitro hT1R2/hT1R3 sweet taste receptor activation assay (FLIPR, dose response). The class given is cell-based. Particulars: read-out: EC50 for activation of a hT1R2/hT1R3 sweet receptor expressed in an HEK293 cell line. In a few lines: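 Dose-response at 10 concentrations (60 nM–30 µM, duplicates) measured as Fluo-3AM calcium fluorescence on FLIPR in hT1R2/hT1R3 S-9 cells, in D-PBS at room temperature. Responses scaled to 400 mM D-fructose. EC50s from regression with all curve parameters floating.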

Data set [2] concerns the target T2, hT1R1/hT1R3 umami receptor (Homo sapiens, UniProt Q7RTX0+Q7RTX1).
T2 construct: expressed in transfected cells; host or cells: HEK293 derivative stably expressing Gα15, clone I-17, expression induced with mifepristone
T2 sequence (Q7RTX1 21-841): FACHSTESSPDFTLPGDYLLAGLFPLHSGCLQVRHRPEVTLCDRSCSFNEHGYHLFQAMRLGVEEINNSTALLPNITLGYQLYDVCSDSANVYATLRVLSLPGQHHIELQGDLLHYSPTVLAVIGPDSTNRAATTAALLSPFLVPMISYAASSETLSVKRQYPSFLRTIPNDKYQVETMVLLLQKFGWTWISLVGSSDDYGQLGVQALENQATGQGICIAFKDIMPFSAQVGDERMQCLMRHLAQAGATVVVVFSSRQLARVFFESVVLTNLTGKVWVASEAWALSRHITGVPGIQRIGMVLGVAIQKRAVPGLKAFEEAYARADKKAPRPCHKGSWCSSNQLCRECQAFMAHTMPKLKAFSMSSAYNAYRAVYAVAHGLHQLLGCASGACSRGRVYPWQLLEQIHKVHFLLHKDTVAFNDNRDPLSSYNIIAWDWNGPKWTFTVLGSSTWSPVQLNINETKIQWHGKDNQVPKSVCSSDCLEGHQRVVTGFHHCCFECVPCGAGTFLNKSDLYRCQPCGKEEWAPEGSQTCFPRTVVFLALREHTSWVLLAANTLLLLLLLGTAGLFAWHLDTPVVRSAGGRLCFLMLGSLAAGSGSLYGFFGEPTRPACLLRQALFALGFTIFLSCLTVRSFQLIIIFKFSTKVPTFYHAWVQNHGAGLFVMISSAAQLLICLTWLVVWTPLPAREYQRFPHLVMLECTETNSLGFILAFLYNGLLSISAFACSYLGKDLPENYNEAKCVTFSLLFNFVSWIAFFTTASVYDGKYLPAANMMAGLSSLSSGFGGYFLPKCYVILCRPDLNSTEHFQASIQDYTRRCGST
T2 sequence (Q7RTX0 21-852): T1 sequence (Q7RTX0 21-852)
Nature of the data set: In vitro hT1R1/hT1R3 umami taste receptor activation assay (FLIPR, dose response). The format is cell-based. The note with it: read-out: EC50 for activation of a hT1R1/hT1R3 umami receptor expressed in an HEK293 cell line.

The subject of a further data set is human panelists. Put plainly: Umami/savory flavor experiments using human panelists (trained panel, difference from reference). The note with it: savory taste; for Taste Data: concentration of cpd that with 12 mM MSG is as strong as 12 mM MSG + 100 μM IMP: aqueous solution with 12 mM MSG; for Taste Data: concentration of cpd (alone) as strong as 12 mM MSG: without MSG. The class given is in vivo. The method, then: General Panelist Selection: Basic screening of sensory taste testers: Potential panelists were tested for their abilities to rank and rate intensities of solutions representing the five basic tastes. Panelists ranked and rated intensity of five different concentrations of each of the five following compounds: sucrose (sweet), sodium chloride (salty), citric acid (sour), caffeine (bitter), and monosodium glutamate (savory). In order to be selected for participation in testing, panelists needed to correctly rank and rate samples for intensity, with a reasonable number of errors. […]
Trained Panelist Selection: A trained expert panel was used to further evaluate compounds that had been tested with the preliminary taste test.
Panelists for the trained panel were selected from the larger group of qualifying taste panelists. Panelists were further trained on savory taste by ranking and rating experiments using MSG and IMP combinations. Panelists completed a series of ranking, rating, and difference from reference tests with savory solutions. In ranking and rating experiments, panelists evaluated easy MSG concentrations (0, 6, 18, 36 mM) and more difficult MSG concentrations (3, 6, 12, 18 mM MSG) in water.
Compound testing with Trained Panel: Compounds tested by the trained panel were evaluated in difference from reference experiments. […] Test samples were solutions with varying amounts of MSG, IMP, and the compound. Typically, each session compares the reference sample to numerous test samples. […] Compounds were tested against the reference in samples with and without 12 mM MSG. All samples were presented in 10 ml volumes at room temperature. Two sessions were completed for each compound tested to evaluate panel reproducibility.

For `Cc1c(F)c(F)c(C(=O)NC2CCCCC2C)c(F)c1F` (stereo not shown) [Example 162, 2,3,5,6-tetrafluoro-4-methyl-N-(2-methylcyclohexyl)benzamide], the melting point was 202 to 204 °C. The EC50 in data set [1] is 390 nM.
Regarding `Cc1c(F)c(F)c(C(=O)NC(C(C)C)C(C)C)c(F)c1F` [Example 165, N-(2,4-dimethylpentan-3-yl)-2,3,5,6-tetrafluoro-4-methylbenzamide], the melting point is 184 to 187 °C. For the same molecule, the EC50 in data set [1] was found to be 810 nM.
On to `COc1ccc(C(=O)N[C@H]2CCc3ccccc32)cc1C` [Example 121-1, (S)-N-(2,3-Dihydro-1H-inden-1-yl)-4-methoxy-3-methylbenzamide], for which the EC50 in data set [2] came to 80 nM. Besides, in the data set on human panelists, the “Taste Data: concentration of cpd that with 12 mM MSG is as strong as 12 mM MSG + 100 μM IMP” value (“Taste Data: concentration of cpd that” for short) is reported as 12 mM MSG + 1 μM cpd as strong as and the “Taste Data: concentration of cpd (alone) as strong as 12 mM MSG” value was 1 μM cpd as strong as 12 mM MSG.
Take `COC[C@@H](CC(C)C)NC(=O)c1ccc(OC)c(C)c1` [Example 104, 4-Methoxy-N-(1-methoxymethyl-3-methyl-butyl)-3-methyl-benzamide]: the EC50 in data set [2] amounted to 240 nM. In addition, the “Taste Data: concentration of cpd that” value in the data set with human panelists is 12 mM MSG + 3 μM cpd as strong as.
`Cc1cc(C)c2c(c1)C(NC(=O)c1conc1C)CCC2` (stereo not shown) [Example 166, N-(5,7-dimethyl-1,2,3,4-tetrahydronaphthalen-1-yl)-3-methylisoxazole-4-carboxamide] gave a melting point of 57 to 58 °C. The EC50 in data set [1] is 760 nM.
On to `Cc1c(F)c(F)c(C(=O)NC2CCCCCC2)c(F)c1F` [Example 164, N-cycloheptyl-2,3,5,6-tetrafluoro-4-methylbenzamide], for which the melting point was in the range of 164 to 165 °C. Also, the EC50 in data set [1] came out at 1850 nM.
As to `COc1cccc2c1CCCC2NC(=O)c1cccc(Cl)c1O` (stereo not shown) [Example 167, 3-chloro-2-hydroxy-N-(5-methoxy-1,2,3,4-tetrahydronaphthalen-1-yl) benzamide], the melting point fell in the range of 175 to 176 °C. Moreover, the EC50 in data set [1] is 210 nM.
For the molecule `CCCC(CCC)NC(=O)c1ccc2c(c1)OCO2` [Example 1, N-(heptan-4-yl)benzo[d][1,3]dioxole-5-carboxamide], the EC50 in data set [2] was 200 nM. Moreover, in the data set with human panelists, the “Taste Data: concentration of cpd that” value was 12 mM MSG + 3 μM cpd as strong as.
For the molecule `COc1ccc(CNC(=O)C(=O)NCCc2ccccn2)c(OC)c1` [Example 123, N-(2,4-Dimethoxy-benzyl)-N′-(2-pyridin-2-yl-ethyl)-oxalamide], in data set [2], the EC50 was 90 nM. Also, in the data set with human panelists, the “Taste Data: concentration of cpd that” value is reported as 12 mM MSG + 1 μM cpd as strong as and the “Taste Data: concentration of cpd (alone) as strong as 12 mM MSG” value is given as 1 μM cpd as strong as 12 mM MSG.
In turn, `O=C(Nc1ccc2c(c1)OCO2)N1Cc2ccccc2C1` [Example 174, N-(3,4-methylenedioxyphenyl)isoindoline-2-carboxamide] gave a melting point of 165 to 166 °C. For the same molecule, the EC50 in data set [1] came out at 1050 nM.
Take `COc1ccc2c(c1)CCC[C@H]2NC(=O)c1cccc(Cl)c1O` [Example 183, (R)-3-Chloro-2-hydroxy-N-(6-methoxy-1,2,3,4-tetrahydronaphthalen-1-yl)benzamide]: the melting point lay in the range of 111 to 113 °C. Further, the EC50 in data set [1] came out at 850 nM.
`O=C(N[C@@H]1CCCc2c(O)cccc21)c1cccc(Cl)c1O` (stereo in doubt) [Example 180, 3-Chloro-2-hydroxy-N-(5-hydroxy-1,2,3,4-tetrahydronaphthalen-1-yl)benzamide] registered a melting point of 148 to 151 °C. The EC50 in data set [1] stood at 1170 nM.
For the molecule `CCCC(CCC)NC(=O)c1ccc2oc(CCl)nc2c1` [Example 45, Chloromethyl benzooxazol-5-carboxylic acid (1-propyl-butyl)amide], the melting point is 108.5 to 109 °C. Besides, the EC50 in data set [2] was 230 nM.

(Values after patent US20060045953A1 (priority 2004, published 2006).)
